Series [1] concerns the target T1, human-KOR (Homo sapiens, UniProt P41145). Kind of series: Calcium mobilization assay, CHO-KOR cells expressing Gαqi5. Type of series: cell-based. The arrangement: expressed in transfected cells; gift of Dr. Larry Toll (SRI International); infected with a retrovirus for Gαqi5. The note with it: for KOR pEC50 (CL95%): agonist mode, crc incomplete = incomplete concentration response curve at 10 μM; for KOR pEC50 (CL95%) / KOR pKB (CL95%): Inactive = inactive at 10 μM; for KOR pKB (CL95%): antagonist mode, dynorphin A as agonist. On the procedure:
(§1) The pharmacological characterization of LP1 derivatives 2 and 10–16 was performed by calcium mobilization assay (Table 2). This procedure was preliminarily validated through a series of experiments where the effects of DPDPE, dermorphin, and dynorphin A were assessed in CHO cells expressing the human recombinant opioid receptors and Gαqi5 or GαqG66Di5 chimeric proteins.
(§2) Chinese hamster ovary (CHO) cells expressing the recombinant human MOR and KOR (CHO^MOR and CHO^KOR) were kindly provided by Dr. Larry Toll (SRI International, Menlo Park, CA, USA), and CHO cells expressing the recombinant human DOR (CHO^DOR) were supplied by Dr. Eva Varga (Department of Medical Pharmacology, The University of Arizona, Tucson, AZ, USA). CHO cells lines permanently coexpressing the opioid receptors and the C-terminally modified Gαqi5 were prepared by infecting the CHO lines described above with a recombinant retrovirus expressing the chimeric α subunit and the hygromycin resistance gene. Similarly, CHO cells lines permanently coexpressing DOR and the C-terminally modified GαqG66Di5 were prepared by infecting the CHO lines described above with a recombinant retrovirus expressing the chimeric α subunit and the hygromycin resistance gene. Polyclonal cell lines were generated using the pantropic retroviral expression system form BD-Clontech, as described previously. Stable lines were selected under hygromycin B (100 μg/mL) and geneticin (600 μg/mL) for 2–3 weeks after the infection.
(§3) CHO cells, expressing human opioid receptors and the Gαqi5 protein, and CHODOR, expressing the GαqG66Di5 protein, were maintained in culture medium consisting of Dulbecco minimum essential medium (DMEM) and Ham F-12 (1:1) (50/50) supplemented with 10% fetal calf serum (FCS), L-glutamine (2 mM), geneticin (200 μg/mL; G418), hygromycin B (100 μg/mL) at 37 °C in 5% CO2 humidified air. When confluence was reached (3–4 days), cells were subcultured as required using trypsin/EDTA, and used for experimentation. The different cell lines were seeded at a density of […] into black 96-well, clear-bottomed plates. After 24 h incubation, the cells were loaded with medium supplemented with 2.5 mM probenecid, 3 μM of the calcium sensitive fluorescent dye Fluo-4 AM, and 0.01% pluronic acid, for 30 min at 37 °C. Afterwards, the loading solution was aspirated and 100 μL/well of assay buffer—HBSS supplemented with 20 mM HEPES, 2.5 mM probenecid and 500 μM Brilliant Black (Aldrich, St. Louis, MO, USA)—was added. Serial dilutions of ligands for experimental use were made in HBSS/HEPES (20 mM) buffer (containing 0.005% BSA fraction V). After placing both plates (cell culture and compound plate) into the FlexStation II (Molecular Device, Union City, San Jose, CA 94587, USA), fluorescence changes were measured at room temperature. Online additions were carried out in a volume of 50 μL/well. Antagonists were incubated 15 min before the addition of the agonist. Maximum change in fluorescence, expressed in percent of baseline fluorescence, was used to determine agonist response.
(§4) Analysis of the binding data was performed using the Origin 7.5 software (OriginLab Corporation, Northampton, MA, USA). In calcium mobilization experiments, data were analyzed by non-linear curve fitting equation, using GraphPad 5.0 software. […] Ligand efficacy was expressed as intrinsic activity (α), calculated as the ratio between the Emax of the ligand and that of the respective standards. Calcium mobilization data were expressed as FIU (fluorescence intensity units) in percent, over the baseline. Agonist potencies are given as pEC50 (the negative logarithm to base 10 of the molar concentration of an agonist that produces 50% of the maximal possible effect, Emax). Concentration response curves to agonists were fitted with the following equation: Effect = baseline + (Emax − baseline)/(1+10^(LogEC50 − X) ∗ HillSlope) where X is the agonist concentration. […]
On the technique in general: A change in cytosolic calcium serves as a functional read-out for many receptors and channels.

The target of series [2] is T1, human-KOR. The experiment in a line: Radioligand competition binding, [3H]-DPN, HEK293 membranes, KOR. Further details: expressed in transfected cells. On the procedure: (§5) All synthesized compounds were tested in vitro by radioligand competition binding using [^3H]-diprenorphine ([^3H]-DPN) to measure the affinity for opioid receptor subtypes in membranes from HEK293 cells stably expressing either MOR, DOR, or KOR, as previously described.
(§6) Confluent monolayers of HEK293 (human embryonic kidney 293) cells stably expressing rat-MOR, rat-DOR, or human-KOR were harvested, collected by centrifugation at 1500 rpm for 5 min, and washed once with phosphate-buffered saline (PBS) at pH 7.5. Membranes from cell pellets were carried out as described by Georgoussi and Zioudrou (1993) and Papakonstantinou et al. (2015). Briefly, cell pellets were resuspended in ice-cold membrane buffer (10 mM Tris-HCl, pH 7.5 and 0.1 mM EDTA), homogenized, and centrifuged at 2,000 g for 3 min at 4 °C. Supernatants were further centrifuged at 45,000 rpm for 30 min at 4 °C. The membrane pellet was resuspended in ice-cold membrane buffer at a protein concentration of approximately 1 mg/mL and stored in aliquots at −70 °C. Protein concentration was determined according to Bradford assay.
(§7) In the experiments designed to define compound affinity and selectivity for MOR, DOR, and KOR, membranes expressing each of these opioid receptors ([…]) were incubated at 30 °C for 45 min in buffer containing 50 mM Tris-HCl, pH 7.5, 100 mM NaCl, and 10 mM MgCl2 as described by Georgoussi et al. […] The ability of compounds 10–16 to displace [^3H]-DPN (3.75 nM) binding to the opioid receptors was assessed as described by Morou And Georgoussi (2005). Non-specific binding was measured in the presence of […] Naloxone. The reaction was stopped by rapid filtration and three washes in ice-cold 50 mM Tris-HCl, pH 7.4, through GF/C filters (Whatman, Maidstone, UK) using an automated cell harvester (Brandel Inc., Gaithersburg, MD, USA). The radioactivity was measured by liquid scintillation counting (Liquid Scintillation Analyzer, Packard).
(§8) Analysis of the binding data was performed using the Origin 7.5 software (OriginLab Corporation, Northampton, MA, USA). In calcium mobilization experiments, data were analyzed by non-linear curve fitting equation, using GraphPad 5.0 software. […] Ligand efficacy was expressed as intrinsic activity (α), calculated as the ratio between the Emax of the ligand and that of the respective standards. Calcium mobilization data were expressed as FIU (fluorescence intensity units) in percent, over the baseline. Agonist potencies are given as pEC50 (the negative logarithm to base 10 of the molar concentration of an agonist that produces 50% of the maximal possible effect, Emax). Concentration response curves to agonists were fitted with the following equation: Effect = baseline + (Emax − baseline)/(1+10^(LogEC50 − X) ∗ HillSlope) where X is the agonist concentration.
On the technique in general: In a radioligand displacement assay an active substance lowers the binding of a labelled ligand.

A further series deals with T2, recombinant human DOR (Homo sapiens, UniProt P41143).
T2 construct: expressed in transfected cells; supplied by Dr. Eva Varga (University of Arizona); infected with a retrovirus for GαqG66Di5
The experiment in a line: Calcium mobilization assay, CHO-DOR cells expressing GαqG66Di5. Type of series: cell-based. The note with it: for DOR pEC50 (CL95%): agonist mode, crc incomplete = incomplete concentration response curve at 10 μM; for DOR pEC50 (CL95%) / DOR pKB (CL95%): Inactive = inactive at 10 μM; for DOR pKB (CL95%): antagonist mode, DPDPE as agonist. On the procedure: as §1, §2, §3, §4

For series [3], the target named is T3, rat-MOR (Rattus norvegicus, UniProt P33535).
T3 construct: expressed in transfected cells
The experiment in a line: Radioligand competition binding, [3H]-DPN, HEK293 membranes, MOR. As to the method:
as §5, §6, §7, §8

The target in another series is T4, recombinant human MOR (Homo sapiens, UniProt P35372).
T4 construct: expressed in transfected cells; gift of Dr. Larry Toll (SRI International); infected with a retrovirus for Gαqi5
The experiment in a line: Calcium mobilization assay, CHO-MOR cells expressing Gαqi5. Type of series: cell-based. The note with it: for MOR pEC50 (CL95%): agonist mode, crc incomplete = incomplete concentration response curve at 10 μM.

The target in series [4] is T5, rat-DOR (Rattus norvegicus, UniProt P33533).
T5 construct: expressed in transfected cells
The experiment in a line: Radioligand competition binding, [3H]-DPN, HEK293 membranes, DOR. On the procedure:
as §5, §6, §7, §8

Series [5] concerns the target T5, rat-DOR. Further details: method as in PMID 27234885. As to conditions: read-out: Ki (μM) ± SEM DOR; [3H]-DPN displacement; cited from earlier work.
The target of series [6] is T3, rat-MOR. Further details: method as in PMID 27234885. As to conditions: read-out: Ki (μM) ± SEM MOR; [3H]-DPN displacement; cited from earlier work.
Series [7] has as its target T1, human-KOR. The arrangement: expressed in transfected cells; method as in PMID 27234885. As to conditions: read-out: Ki (μM) ± SEM KOR; [3H]-DPN displacement; cited from earlier work.

Consider 3 compounds from article PMC6027146, “Synthesis and Structure-Activity Relationships of (−)-cis-N-Normetazocine-Based LP1 Derivatives” (Pharmaceuticals, 2018).

Like-named read-outs stand apart in the source and are kept apart here.

In turn, `COc1ccc(NC(=O)CCN2CC[C@@]3(C)c4cc(O)ccc4C[C@@H]2[C@@H]3C)cc1` [Compound 13, 3-[(2R,6R,11R)-8-Hydroxy-6,11-dimethyl-1,4,5,6-tetrahydro-2,6-methano-3-benzazocin-3(2H)-yl]-N-(4-methoxyphenyl)propanamide] gave a melting point of 172.9 to 173.5 °C. On human-KOR [1], the “KOR pEC50 (CL95%)” value is recorded as “Inactive” and the “KOR pKB (CL95%)” value was “Inactive”. This compound also yielded a Ki at human-KOR [2] of 4 ± 0.18 µM. On recombinant human DOR, the “DOR pEC50 (CL95%)” value was “Inactive” and the “DOR pKB (CL95%)” value is recorded as “Inactive”. This compound registered a Ki at rat-MOR [3] of 0.18 ± 0.011 µM. At recombinant human MOR, the Kb is 0.501 µM. Moreover, the “MOR pEC50 (CL95%)” value on recombinant human MOR (Inactive = inactive at 10 μM) is listed as “Inactive”. Moreover, at rat-DOR [4], the Ki came out at 1.1 ± 0.11 µM.
In the case of `C[C@H]1[C@H]2Cc3ccc(O)cc3[C@]1(C)CCN2CCC(=O)N1CCc2ccccc21` [Compound 14, 1-(2,3-Dihydro-1H-indol-1-yl)-3-[(2R,6R,11R)-8-hydroxy-6,11-dimethyl-1,4,5,6-tetrahydro-2,6-methano-3-benzazocin-3(2H)-yl]propan-1-one], the melting point is 169 °C (dec.). Also, on human-KOR [1], the “KOR pEC50 (CL95%)” value is listed as “Inactive” and the “KOR pKB (CL95%)” value is recorded as “Inactive”. Moreover, at human-KOR [2] ([3H]-DPN displacement, means ± SEM of three experiments in duplicate, read-out: Ki (μM) ± SEM KOR), the Ki was found to be 1.6 ± 0.12 µM. Further, at recombinant human DOR, the “DOR pEC50 (CL95%)” value is recorded as “Inactive” and the “DOR pKB (CL95%)” value is “Inactive”. In addition, the Ki at rat-MOR [3] ([3H]-DPN displacement, means ± SEM of three experiments in duplicate, read-out: Ki (μM) ± SEM MOR) came out at 0.4 ± 0.03 µM. Also, on recombinant human MOR (Inactive = inactive at 10 μM), the “MOR pEC50 (CL95%)” value was “Inactive”. Moreover, the Kb at recombinant human MOR (antagonist mode, dermorphin as agonist, Inactive = inactive at 10 μM, read-out: MOR pKB (CL95%) (converted)) is 1.15 µM. Also, the Ki on rat-DOR [4] ([3H]-DPN displacement, means ± SEM of three experiments in duplicate, read-out: Ki (μM) ± SEM DOR) turned out to be 1.4 ± 0.12 µM.
Turning to `CC1C2Cc3ccc(O)cc3C1(C)CCN2CCC(=O)Nc1cccc2ccccc12` (centres unmarked) [Compound 2], the Ki on rat-DOR [5] was 0.21 ± 0.03 µM; at rat-MOR [6], 0.038 ± 0.004 µM; at human-KOR [7], 0.8 ± 0.016 µM. Also, the Kb is 1.38 µM on human-KOR [1], 0.166 µM at recombinant human DOR and 0.0126 µM on recombinant human MOR. Besides, at human-KOR [1], the “KOR pEC50 (CL95%)” value is reported as “Inactive”. Further, the “DOR pEC50 (CL95%)” value on recombinant human DOR is listed as “Inactive”. Also, the “MOR pEC50 (CL95%)” value on recombinant human MOR (Inactive = inactive at 10 μM) was “Inactive ^e”.

As a reminder, the Ki is a dissociation constant, usually derived from enzyme kinetics or from competition with a known ligand. In general, melting point refers to the temperature of the solid-liquid transition.
